From article PMC8546889 (Acta Pharmaceutica Sinica. B, 2021)
Where two headings read alike, the source gives them in different places.

How the values were obtained:
HT-29 cells [1] = test: Anti-necroptosis activity assay; type: cell-based, human; conditions: for EC50: Homo sapiens, HT-29, read-out: Anti-necroptosis (EC50); for anti-necroptosis activity improvement compared with TAK-632: EC50 ratio versus TAK-632
RIP3 [2] = target: T1, RIP3 (Homo sapiens, UniProt Q9Y572); test: Drug affinity responsive target stability assay; conditions: 50 μmol/L, HT-29 cell lysates, 0.1% Pronase 30 min
T1 sequence (Q9Y572 whole entry): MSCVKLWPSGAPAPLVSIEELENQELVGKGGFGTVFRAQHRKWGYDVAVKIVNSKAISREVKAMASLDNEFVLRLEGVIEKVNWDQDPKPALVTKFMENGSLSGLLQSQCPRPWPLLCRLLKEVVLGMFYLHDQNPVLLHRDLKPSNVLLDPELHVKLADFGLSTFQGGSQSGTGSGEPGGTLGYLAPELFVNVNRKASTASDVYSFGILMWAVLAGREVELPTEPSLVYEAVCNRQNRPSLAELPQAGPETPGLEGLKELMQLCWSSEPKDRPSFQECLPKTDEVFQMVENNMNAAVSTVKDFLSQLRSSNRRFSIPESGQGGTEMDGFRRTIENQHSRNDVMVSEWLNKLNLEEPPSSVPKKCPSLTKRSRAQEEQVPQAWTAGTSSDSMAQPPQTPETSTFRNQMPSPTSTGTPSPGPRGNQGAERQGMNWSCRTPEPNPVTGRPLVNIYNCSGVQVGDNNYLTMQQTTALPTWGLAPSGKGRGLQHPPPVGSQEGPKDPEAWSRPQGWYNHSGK

PK study in mice = type: in vivo; conditions: male, ICR, mouse, plasma; for AUC: mice
RIP1-RIP3 necrosome = target: T2, RIP1-RIP3 necrosome (Homo sapiens, UniProt Q13546); test: Immunoprecipitation of RIP1-RIP3 necrosome; conditions: HT-29 cells, 1 μmol/L, 6 h
T2 sequence (Q13546 1-671): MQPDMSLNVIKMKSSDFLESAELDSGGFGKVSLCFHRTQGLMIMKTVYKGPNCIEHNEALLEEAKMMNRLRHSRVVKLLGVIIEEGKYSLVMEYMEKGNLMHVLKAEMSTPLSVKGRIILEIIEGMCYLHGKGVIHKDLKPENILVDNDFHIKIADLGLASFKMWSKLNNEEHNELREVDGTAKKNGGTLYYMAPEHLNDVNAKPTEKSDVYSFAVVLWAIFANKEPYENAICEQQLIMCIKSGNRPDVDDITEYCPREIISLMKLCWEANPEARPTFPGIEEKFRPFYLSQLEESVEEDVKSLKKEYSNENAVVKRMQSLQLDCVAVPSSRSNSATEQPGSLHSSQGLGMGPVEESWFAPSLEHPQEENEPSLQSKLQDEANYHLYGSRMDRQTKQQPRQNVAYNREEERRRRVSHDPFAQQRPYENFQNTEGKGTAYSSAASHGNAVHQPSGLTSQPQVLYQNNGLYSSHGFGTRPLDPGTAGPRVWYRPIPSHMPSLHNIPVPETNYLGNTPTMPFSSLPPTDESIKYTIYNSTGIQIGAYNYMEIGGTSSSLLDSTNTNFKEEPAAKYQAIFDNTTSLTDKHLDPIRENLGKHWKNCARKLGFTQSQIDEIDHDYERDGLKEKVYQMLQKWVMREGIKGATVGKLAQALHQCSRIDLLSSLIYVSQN

L929 cells = test: TZ-induced necroptosis in L929 cells; conditions: mTNF-α and Z-VAD-FMK (TZ), 9 h
HT-29 cells [3] = test: TCZ-induced necroptosis in HT-29 cells; type: cell-based, human; conditions: TCZ 24 h
[4] = test system: phosphorylation of RIP1, RIP3, and MLKL; test: Immunoblotting of necroptosis pathway phosphorylation in TSZ-induced HT-29 cells; type: cell-based, human; conditions: 1 μmol/L
healthy mice = test: Single-dose acute oral toxicity test; type: in vivo
C57BL/6 J mice [5] = test: TNF-α-induced systemic inflammatory response syndrome; conditions: for survival rate of SIRS mice: over 60 h
RIP1 [6] = target: T3, RIP1 (Homo sapiens, UniProt Q13546); test: Drug affinity responsive target stability assay; conditions: 50 μmol/L, HT-29 cell lysates, 0.1% Pronase 30 min
T3 sequence (Q13546 1-671): T2 sequence (Q13546 1-671)

Cytotoxicity = type: cell-based
HT-29 cells [7] = test: Apoptosis model induced by TC or TS in HT-29 cells; type: cell-based, human; conditions: different concentrations
C57BL/6 J mice [8] = test: DSS-induced UC model; type: in vivo
RIP3 [9] = target: T1, RIP3; test: KINOMEscan kinase binding assay, RIP3
RIP1 [10] = target: T3, RIP1; test: KINOMEscan kinase binding assay, RIP1; conditions: for RIP1 selectivity: RIP1 over RIP3 (Kd ratio)
[11] = read-out: Cytotoxicity (CC50); cited from earlier work

Question: Which EC50 (HT-29 cells [1]) does the source give for `N#Cc1cc(Oc2ccc(F)c(NC(=O)Cc3cccc(C(F)(F)F)c3)c2)cc2sc(NC(=O)C3CC3)nc12` [Compound 15] here?
Answer: > 10000 nM

Question: What about the anti-necroptosis activity (HT-29 cells [1]; at 10 μmol/L) of the same compound?
Answer: completely eliminated the activity

Question: For `O=C(Cc1cccc(C(F)(F)F)c1)Nc1cc(Oc2cc3sc(NC(=O)C4CC4)nc3cc2F)ccc1F` [Compound 25, N-(5-Fluoro-6-(4-fluoro-3-(2-(3-(trifluoromethyl)phenyl)acetamido)phenoxy)benzo[d]thiazol-2-yl)cyclopropanecarboxamide], which “DARTS detection of RIP3 after protease digestion” value (RIP3 [2]) is on record?
Answer: not detected

Question: What about the MRT inf (PK study in mice; iv, 1 mg/kg) of the same compound?
Answer: 1.59 ± 0.43 h

Question: And the Vd (PK study in mice; iv, 1 mg/kg)?
Answer: 1670 ± 856 L/kg

Question: What about the clearance (PK study in mice; iv, 1 mg/kg) of the same compound?
Answer: 16.8 ± 4.8 mL/min/kg

Question: What about the half-life (PK study in mice; iv, 1 mg/kg) of the same compound?
Answer: 100 ± 27.6 min

Question: And the AUC (PK study in mice; iv, 1 mg/kg, AUC0‒t, 1 mg/kg i.v.)?
Answer: 1030 ± 350 ng·h/mL

Question: And the AUC (PK study in mice; iv, 1 mg/kg, AUC0‒∞, 1 mg/kg i.v.)?
Answer: 1060 ± 354 ng·h/mL

Question: What about the Cmax (PK study in mice; po, 10 mg/kg) of the same compound?
Answer: 381 ± 35 ng/mL

Question: And the MRT inf (PK study in mice; po, 10 mg/kg)?
Answer: 2.74 ± 0.32 h

Question: And the Tmax (PK study in mice; po, 10 mg/kg)?
Answer: 40.2 ± 17.4 min

Question: And the bioavailability (PK study in mice; po, 10 mg/kg)?
Answer: 9.69 ± 2.31%

Question: And the half-life (PK study in mice; po, 10 mg/kg)?
Answer: 70.8 ± 37.2 min

Question: And the AUC (PK study in mice; po, 10 mg/kg, AUC0‒t, 10 mg/kg p.o.)?
Answer: 991 ± 218 ng·h/mL

Question: What about the AUC (PK study in mice; po, 10 mg/kg, AUC0‒∞, 10 mg/kg p.o.) of the same compound?
Answer: 1030 ± 245 ng·h/mL

Question: And the TSZ-induced necrosome formation (RIP1-RIP3 necrosome)?
Answer: completely blocked

Question: And the “anti-necroptosis potency improvement compared with SZM-594” value (HT-29 cells [1]; EC50 ratio versus SZM-594)?
Answer: 21 fold

Question: What about the “anti-necroptosis activity improvement compared with TAK-632” value (HT-29 cells [1]) of the same compound?
Answer: 180 fold

Question: What about the “inhibition of necroptosis induced by TSZ” value (HT-29 cells [1]; HT-29 cells, TSZ 12 h) of the same compound?
Answer: dose-dependently inhibit necroptosis

Question: What about the EC50 (HT-29 cells [1]) of the same compound?
Answer: 8 ± 1 nM

Question: What about the “attenuation of necroptosis in L929 cells” value (L929 cells) of the same compound?
Answer: dose-dependently attenuated necroptosis

Question: What about the “inhibition of necroptosis induced by TCZ” value (HT-29 cells [3]) of the same compound?
Answer: dose-dependently inhibit necroptosis

Question: And the “downstream phosphorylation of MLKL” value [4]?
Answer: completely inhibited

Question: And the “phosphorylation of RIP1 and RIP3” value ([4]; within 6 h)?
Answer: completely inhibit

Question: What about the “death after single oral dose” value (healthy mice; 5 g/kg intragastric, 2 weeks, male and female mice) of the same compound?
Answer: no death occurred

Question: What about the acute tolerability (healthy mice; 5 g/kg, 14-day period) of the same compound?
Answer: well tolerated

Question: And the “body temperature loss in SIRS mice” value (C57BL/6 J mice [5]; 10 or 20 mg/kg intragastric, first 2–3 h after mTNF-α/Z-VAD-FMK)?
Answer: protected mice from body temperature loss

Question: And the “survival rate of SIRS mice” value (C57BL/6 J mice [5]; single dose 10 mg/kg)?
Answer: 60%

Question: What about the “survival rate of SIRS mice” value (C57BL/6 J mice [5]; single dose 20 mg/kg) of the same compound?
Answer: 100%

Question: And the “DARTS protection of RIP1 from protease digestion” value (RIP1 [6])?
Answer: protected from protease digestion

Question: And the CC50 (Cytotoxicity)?
Answer: > 50 µM

Question: What about the “protective effects in the apoptosis model” value (HT-29 cells [7]) of the same compound?
Answer: did not show any protective effects

Question: And the colon length (C57BL/6 J mice [8]; 20 mg/kg, Day 13, P < 0.01 versus untreated colitis mice)?
Answer: longer colon length

Question: What about the “alleviation of body weight in UC mice” value (C57BL/6 J mice [8]; 10 or 20 mg/kg intragastric, from Day 11) of the same compound?
Answer: significantly dose-responsed speeded up

Question: And the “phosphorylation of RIP1, RIP3 and MLKL in colon tissue” value (C57BL/6 J mice [8]; Western blot, TUNEL)?
Answer: reducing the phosphorylation

Question: What about the “mRNA of inflammatory cytokines (Il-6 and Il-1β) and chemokine receptors (Ccr-2 and Ccr-5)” value (C57BL/6 J mice [8]; colon tissue, qPCR) of the same compound?
Answer: significantly reduced

Question: And the “protein expressions of IL-6 and IL-1β in colon tissue” value (C57BL/6 J mice [8]; dose–response manner)?
Answer: inhibited the protein expressions

Question: What about the “level of FITC-dextran in the serum” value (C57BL/6 J mice [8]; intestinal permeability, versus DSS-disease mice) of the same compound?
Answer: significantly lower

Question: And the “activity toward RIP3” value (RIP3 [9]; even at 5000 nmol/L)?
Answer: no apparent activity

Question: Which Kd (RIP1 [10]) does the source give for `CC(=O)c1c(Oc2ccc(F)c(NC(=O)Cc3cccc(C(F)(F)F)c3)c2)ccc2nc(NC(=O)C3CC3)sc12` [Compound 10] here?
Answer: 880 nM

Question: And the RIP1 selectivity (RIP1 [10])?
Answer: 0.37

Question: What about the “anti-necroptosis activity improvement compared with TAK-632” value (HT-29 cells [1]) of the same compound?
Answer: more than 10 fold

Question: And the EC50 (HT-29 cells [1])?
Answer: 130 ± 60 nM

Question: And the CC50 (Cytotoxicity)?
Answer: > 50 µM

Question: And the Kd (RIP3 [9])?
Answer: 330 nM

Question: With `N#Cc1c(Oc2ccc(F)c(NC(=O)Cc3cccc(C(F)(F)F)c3)c2)ccc2nc(NC(=O)C3CC3)sc12` [Compound 5, N-(7-Cyano-6-(4-fluoro-3-(2-(3-(trifluoromethyl)phenyl)acetamido)phenoxy)benzo[d]thiazol-2-yl)cyclopropanecarboxamide] as the compound, how does the CC50 [11] read?
Answer: > 50 µM

Question: Which Kd (RIP1 [10]) does the source give for `O=C(Cc1cccc(C(F)(F)F)c1)Nc1cc(Oc2ccc3nc(NC(=O)C4CC4)sc3c2[N+](=O)[O-])ccc1F` [Compound 9] here?
Answer: 710 nM

Question: And the RIP1 selectivity (RIP1 [10])?
Answer: 0.37

Question: What about the EC50 (HT-29 cells [1]) of the same compound?
Answer: 480 ± 10 nM

Question: What about the CC50 (Cytotoxicity) of the same compound?
Answer: > 50 µM

Question: And the Kd (RIP3 [9])?
Answer: 260 nM
